Measurements from US7399731B2, “Electrically conductive non-aqueous wellbore fluid” (M-I L.L.C., priority 2001, dated 2008).

Experiment: Electrical conductivity of solutions of the organic salts in non-aqueous solvents
Type: physicochemical
Experimental: A variety of metal carboxylates were prepared in heptane by reacting versatic acid and 2-ethyl hexanoic acid directly with the metal of choice or with a metal base such as the hydride or hydroxide. Lithium, sodium, potassium, rubidium, calcium and gadolinium systems were synthesised.
A 1 molar solution of potassium bis(2-ethylhexyl) phosphate in Brij 30 was then prepared by dissolving 18.02 grams of the salt in 47.5 grams (50 ml) of the solubilising agent.
A 1 molar solution of AOT (Aldrich Chemicals) in Brij 30 was prepared by dissolving 22.23 grams of AOT in 47.5 grams (50 ml) of Brij 30.
The final AOT/neopentyl glycol/Brij 30 solution of FIG. 10 (i.e. 1 molar AOT and 2 molar neopentyl glycol in Brij 30) was then diluted with successive amounts of mineral spirits and the conductivity measured at each addition.

[1] = 1 molar salt and 2 molar neopentyl glycol in Brij 30, diluted: 20% solution, 80% mineral spirits by volume

conductivity (1 molar in Brij 30 with 2.0 molar neopentyl glycol, 25° C.) | Compound | conductivity [1] | conductivity (1 molar solution in Brij 30)
33.5 ìS/cm | CCCCC(CC)COC(=O)CC(C(=O)OCC(CC)CCCC)S(=O)(=O)O.[Na] (centres unmarked) [AOT, sodium salt of bis(2-ethylhexyl) sulfosuccinate] | 1.5 ìS/cm | 15.7 ìS/cm
 | CCCCC(CC)COP(=O)([O-])OCC(CC)CCCC.[K+] (centres unmarked) [potassium bis(2-ethylhexyl) phosphate] | 3.2 ìS/cm | 45.5 ìS/cm
